Source: PubChem BioAssay AID1918993 (Molecular Pharmacology Branch, DTP, NCI, 2023)

Tested on: 233499-124-R-J3-PDC complex spheroid growth
Experiment: Anticancer human tumor 233499-124-R-J3-PDC patient-derived colon adenocarcinoma cell line growth inhibition [AhR]
Conditions: for IC50: curve of first compound; for viability, T/C: stronger effect = lower value
Summary of the method: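 Spheroids combined tumor cells with HUVEC endothelial cells and human MSCs as stroma. AhR antagonists were paired with standard or investigational drugs, each dosed in half-log steps down from near clinical Cmax, or from 10 microM where Cmax was unknown.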

[1] = second compound 0.1 µM, first compound 0.0316 µM
[2] = second compound 0.1 µM, first compound 0.1 µM
[3] = second compound 0.1 µM, first compound 0.316 µM
[4] = second compound 0.1 µM, first compound 1 µM
[5] = second compound 0.1 µM, first compound 3.16 µM
[6] = second compound 0.1 µM, first compound 10 µM
[7] = second compound 0.316 µM, first compound 0.0316 µM
[8] = second compound 0.316 µM, first compound 0.1 µM
[9] = second compound 0.316 µM, first compound 0.316 µM
[10] = second compound 0.316 µM, first compound 1 µM
[11] = second compound 0.316 µM, first compound 3.16 µM
[12] = second compound 0.316 µM, first compound 10 µM
[13] = second compound 1 µM, first compound 0.0316 µM
[14] = second compound 1 µM, first compound 0.1 µM
[15] = second compound 1 µM, first compound 0.316 µM
[16] = second compound 1 µM, first compound 1 µM
[17] = second compound 1 µM, first compound 3.16 µM
[18] = second compound 1 µM, first compound 10 µM
[19] = second compound 3.16 µM, first compound 0.0316 µM
[20] = second compound 3.16 µM, first compound 0.1 µM
[21] = second compound 3.16 µM, first compound 0.316 µM
[22] = second compound 3.16 µM, first compound 1 µM
[23] = second compound 3.16 µM, first compound 3.16 µM
[24] = second compound 3.16 µM, first compound 10 µM
[25] = second compound 10 µM, first compound 0.0316 µM
[26] = second compound 10 µM, first compound 0.1 µM
[27] = second compound 10 µM, first compound 0.316 µM
[28] = second compound 10 µM, first compound 1 µM
[29] = second compound 10 µM, first compound 3.16 µM
[30] = second compound 10 µM, first compound 10 µM
[31] = second compound 0.1 µM, first compound 0.00949 µM
[32] = second compound 0.1 µM, first compound 0.03 µM
[33] = second compound 0.1 µM, first compound 0.0949 µM
[34] = second compound 0.1 µM, first compound 0.3 µM
[35] = second compound 0.316 µM, first compound 0.00949 µM
[36] = second compound 0.316 µM, first compound 0.03 µM
[37] = second compound 0.316 µM, first compound 0.0949 µM
[38] = second compound 0.316 µM, first compound 0.3 µM
[39] = second compound 1 µM, first compound 0.00949 µM
[40] = second compound 1 µM, first compound 0.03 µM
[41] = second compound 1 µM, first compound 0.0949 µM
[42] = second compound 1 µM, first compound 0.3 µM
[43] = second compound 3.16 µM, first compound 0.00949 µM
[44] = second compound 3.16 µM, first compound 0.03 µM
[45] = second compound 3.16 µM, first compound 0.0949 µM
[46] = second compound 3.16 µM, first compound 0.3 µM
[47] = second compound 10 µM, first compound 0.00949 µM
[48] = second compound 10 µM, first compound 0.03 µM
[49] = second compound 10 µM, first compound 0.0949 µM
[50] = second compound 10 µM, first compound 0.3 µM
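Note: spheroids exposed to agents for seven days before reading.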

CC(C)c1c(-c2ccccc2)nc2c(C#N)c[nH]n2c1=O + Cc1cncc(-c2nc(NCCc3c[nH]c4ccccc34)c3ncn(C(C)C)c3n2)c1
IC50 (second compound 0.1 µM): > 10 µM | IC50 (second compound 0.316 µM): > 10 µM | IC50 (second compound 1 µM): > 10 µM | IC50 (second compound 3.16 µM): > 10 µM | IC50 (second compound 10 µM): < 0.0316 µM | viability, T/C [1]: 88.8% | viability, T/C [2]: 100% | viability, T/C [3]: 96.5% | viability, T/C [4]: 108% | viability, T/C [5]: 101% | viability, T/C [6]: 108% | viability, T/C [7]: 89.9% | viability, T/C [8]: 88.9% | viability, T/C [9]: 87.4% | viability, T/C [10]: 86.3% | viability, T/C [11]: 86.2% | viability, T/C [12]: 85.2% | viability, T/C [13]: 84.5% | viability, T/C [14]: 79.2% | viability, T/C [15]: 71.5% | viability, T/C [16]: 73.8% | viability, T/C [17]: 79.2% | viability, T/C [18]: 84% | viability, T/C [19]: 72.5% | viability, T/C [20]: 86.5% | viability, T/C [21]: 74.6% | viability, T/C [22]: 60.9% | viability, T/C [23]: 73.3% | viability, T/C [24]: 77.2% | viability, T/C [25]: 1.69% | viability, T/C [26]: 2.34% | viability, T/C [27]: 4.08% | viability, T/C [28]: 2.26% | viability, T/C [29]: 2.36% | viability, T/C [30]: 2.85%

CC(C)c1c(-c2ccccc2)nc2c(C#N)c[nH]n2c1=O + CC(CO)NC(=O)c1cc(-c2ccc(Cl)cc2)nn(-c2cnn(C)c2)c1=O
IC50 (second compound 0.1 µM): > 10 µM | IC50 (second compound 0.316 µM): > 10 µM | IC50 (second compound 1 µM): > 10 µM | IC50 (second compound 3.16 µM): > 10 µM | IC50 (second compound 10 µM): > 10 µM | viability, T/C [1]: 100% | viability, T/C [2]: 97.7% | viability, T/C [3]: 99.6% | viability, T/C [4]: 101% | viability, T/C [5]: 104% | viability, T/C [6]: 105% | viability, T/C [7]: 113% | viability, T/C [8]: 109% | viability, T/C [9]: 89.5% | viability, T/C [10]: 93.7% | viability, T/C [11]: 96.2% | viability, T/C [12]: 102% | viability, T/C [13]: 107% | viability, T/C [14]: 106% | viability, T/C [15]: 98% | viability, T/C [16]: 102% | viability, T/C [17]: 104% | viability, T/C [18]: 100% | viability, T/C [19]: 101% | viability, T/C [20]: 95.3% | viability, T/C [21]: 94.5% | viability, T/C [22]: 96.8% | viability, T/C [23]: 92.4% | viability, T/C [24]: 87.8% | viability, T/C [25]: 98.2% | viability, T/C [26]: 82.5% | viability, T/C [27]: 93.5% | viability, T/C [28]: 86.3% | viability, T/C [29]: 87.4% | viability, T/C [30]: 96.6%

CCc1c2c(nc3ccc(O)cc13)-c1cc3c(c(=O)n1C2)COC(=O)[C@]3(O)CC + Cc1ccccc1N=Nc1ccc(NC(=O)c2ccnn2C)c(C)c1
IC50 (second compound 0.1 µM): > 0.3 µM | IC50 (second compound 0.316 µM): > 0.3 µM | IC50 (second compound 1 µM): > 0.3 µM | IC50 (second compound 3.16 µM): > 0.3 µM | IC50 (second compound 10 µM): > 0.3 µM | viability, T/C (second compound 0.1 µM, first compound 0.000949 µM): 95.3% | viability, T/C (second compound 0.1 µM, first compound 0.003 µM): 103% | viability, T/C [31]: 102% | viability, T/C [32]: 81.8% | viability, T/C [33]: 90.4% | viability, T/C [34]: 76.6% | viability, T/C (second compound 0.316 µM, first compound 0.000949 µM): 87.6% | viability, T/C (second compound 0.316 µM, first compound 0.003 µM): 91.4% | viability, T/C [35]: 88.5% | viability, T/C [36]: 75.4% | viability, T/C [37]: 77.8% | viability, T/C [38]: 88% | viability, T/C (second compound 1 µM, first compound 0.000949 µM): 105% | viability, T/C (second compound 1 µM, first compound 0.003 µM): 113% | viability, T/C [39]: 102% | viability, T/C [40]: 78.3% | viability, T/C [41]: 84.5% | viability, T/C [42]: 86.2% | viability, T/C (second compound 3.16 µM, first compound 0.000949 µM): 91.5% | viability, T/C (second compound 3.16 µM, first compound 0.003 µM): 105% | viability, T/C [43]: 86.5% | viability, T/C [44]: 86.9% | viability, T/C [45]: 91.8% | viability, T/C [46]: 73.4% | viability, T/C (second compound 10 µM, first compound 0.000949 µM): 107% | viability, T/C (second compound 10 µM, first compound 0.003 µM): 90.6% | viability, T/C [47]: 104% | viability, T/C [48]: 103% | viability, T/C [49]: 106% | viability, T/C [50]: 101%

O=C(C=Cn1cnc(-c2cc(C(F)(F)F)cc(C(F)(F)F)c2)n1)NNc1cnccn1 + Cc1ccccc1N=Nc1ccc(NC(=O)c2ccnn2C)c(C)c1
IC50 (second compound 0.1 µM): > 3 µM | IC50 (second compound 0.316 µM): > 3 µM | IC50 (second compound 1 µM): > 3 µM | IC50 (second compound 3.16 µM): > 3 µM | IC50 (second compound 10 µM): > 3 µM | viability, T/C [31]: 109% | viability, T/C [32]: 91.2% | viability, T/C [33]: 110% | viability, T/C [34]: 86.7% | viability, T/C (second compound 0.1 µM, first compound 0.949 µM): 96% | viability, T/C (second compound 0.1 µM, first compound 3 µM): 61% | viability, T/C [35]: 104% | viability, T/C [36]: 113% | viability, T/C [37]: 111% | viability, T/C [38]: 96.4% | viability, T/C (second compound 0.316 µM, first compound 0.949 µM): 87.3% | viability, T/C (second compound 0.316 µM, first compound 3 µM): 76.8% | viability, T/C [39]: 97.8% | viability, T/C [40]: 98.3% | viability, T/C [41]: 116% | viability, T/C [42]: 100% | viability, T/C (second compound 1 µM, first compound 0.949 µM): 78% | viability, T/C (second compound 1 µM, first compound 3 µM): 77.8% | viability, T/C [43]: 98% | viability, T/C [44]: 99.1% | viability, T/C [45]: 92.8% | viability, T/C [46]: 86.8% | viability, T/C (second compound 3.16 µM, first compound 0.949 µM): 93.2% | viability, T/C (second compound 3.16 µM, first compound 3 µM): 70.8% | viability, T/C [47]: 101% | viability, T/C [48]: 85% | viability, T/C [49]: 85.3% | viability, T/C [50]: 108% | viability, T/C (second compound 10 µM, first compound 0.949 µM): 85.6% | viability, T/C (second compound 10 µM, first compound 3 µM): 50.2%
